16 molecules from US6342501B1, “Pyrrolo[2,3-d] pyrimidines as antiviral agents” (The Regents of the University of Michigan, priority 1994, dated 2002) can be followed below.

pIC50: −log10 of the molar value. Read-outs that look alike come from different tables or passages of the source.

The test system of test [1] is human cytomegalovirus (HCMV). Briefly: microbe, parasite or virus in culture. The class given is cell-based, Towne strain. The following applies: for pIC50: Human betaherpesvirus 5, HFF, read-out: HCMV; for antiviral activity against HCMV (in words): comment on Table 1 data. Here is the method: (§1) The routine growth and passage of KB and BSC-1 cells was performed in monolayer cultures using minimal essential medium (MEM) with either Hanks salts [MEM(H)] or Earle salts [MEM(E)] supplemented with 10% calf serum. The sodium bicarbonate concentration was varied to meet the buffering capacity required. Cultures of diploid human foreskin fibroblast (HFF) or MRC-5 cells were grown in medium consisting of MEM(E) with 10% fetal bovine serum. Cells were passaged at 1:2 to 1:10 dilutions according to conventional procedures by using 0.05% trypsin plus 0.02% EDTA in a HEPES buffered salt solution (HBS) [Shipman, C., Jr., Proc. Soc. […] HFF and MRC-5 cells were passaged only at 1:2 dilutions. The Towne strain, plaque-purified isolate Po, of HCMV was kindly provided by Dr. Mark Stinski, University of Iowa. The KOS strain of HSV-1 was used in most experiments and was provided by Dr. Sandra K. Weller, University of Conn.
Stock HCMV was prepared by infecting HFF cells at a multiplicity of infection (m.o.i.) of <0.01 plaque-forming units (p.f.u.) per cell. Cell growth medium was changed every four days until cytopathology was evident in all cells (approximately 21 days). Supernatant fluids were retained as the virus stock.
Virus titers were determined using monolayer cultures of HFF cells for HCMV and monolayer cultures of BSC-1 cells for HSV-1 as described earlier [Prichard, M. N., et al., J. Virol. […] Briefly, HFF or BSC-1 cells were planted as described above in 96-well cluster dishes and incubated overnight at 37. degree. C. in a humidified 3% C02 -97% air atmosphere. The next day cultures were inoculated with HCMV or HSV-1 and serially diluted 1:3 across the remaining eleven columns of the 96-well plate. Cultures were incubated at 37. degree. C. for 2 hr to permit virus adsorption and then virus inoculum was replaced with 0.2 ml of fresh medium. Cultures were incubated for seven days for HCMV, two or three days for HSV-1, the medium was removed, and the cell sheets were stained with 0.1% crystal violet in 20% methanol.
HFF cells in 24-well cluster dishes were infected with approximately 100 p.f.u. of HCMV per cm^2 cell sheet using the procedures detailed above. Following virus adsorption, compounds dissolved in growth medium were added to duplicate wells in four to eight selected concentrations. After incubation at 37° C. for 7 to 10 days, cell sheets were fixed, stained with crystal violet and microscopic plaques enumerated as described above.
After virus adsorption, inoculum was replaced with 0.2 mL of fresh medium containing test compounds. The first row of 12 wells was left undisturbed and served as virus controls. Each well in the second row received an additional 0.1 mL of medium with test compound at three times the desired final concentration. The contents of the 12 wells were mixed by repeated pipetting and then serially diluted 1:3 along the remaining wells. In this manner, six compounds could be tested in duplicate on a single plate with concentrations from […]. Plates were incubated at 37° C. for seven days, subjected to one cycle of freezing and thawing; aliquots from each of the eight wells of a given column were transferred to the first column of a fresh 96-well monolayer culture of HFF cells. Contents were mixed and serially diluted 1:3 across the remaining eleven columns of the secondary plate. Each column of the original primary plate was diluted across a separate plate in this manner. Cultures were incubated, plaques were enumerated, and titers calculated as described above.
(§2) Dose-response relationships were constructed by linearly regressing the percent inhibition of parameters derived in the preceding sections against logarithm 10 drug concentrations. […] Samples containing positive controls (acyclovir for HSV-1 and ganciclovir for HCMV) were used in all assays.

Test [2] has as its system herpes simplex virus type 1 (HSV-1). Kind of test: HSV-1 ELISA in BSC-1 cells. The class given is cell-based, KOS strain. The conditions noted are these: read-out: HSV-1. On the procedure:
as §1
High titer HSV-1 stocks were prepared by infecting BSC cells at an m.o.i. of <0.1 as detailed previously [Turk, S. R., et al., Antimicrob.
Ninety-six-well cluster dishes were planted with 10,000 BSC-1 cells per well in 200 μL per well of MEM(E) plus 10% calf serum. After overnight incubation at 37° C., selected drug concentrations in quadruplicate and HSV-1 at a concentration of 100 p.f.u./well were added. Following a 3-day incubation at 37° C., medium was removed, plates were blocked, rinsed, and horse radish peroxidase conjugated rabbit anti-HSV-1 antibody was added. Following removal of the antibody containing solution, plates were rinsed, and then developed by adding 150 μL per well of a solution of tetramethylbenzidine as substrate. The reaction was stopped with H2SO4 and absorbance was read at 450 and 570 nm. Drug effects were calculated as a percentage of the reduction in absorbance in the presence of each drug concentration compared to absorbance obtained with virus in the absence of drug.
as §2
(An ELISA detects its analyte on a solid surface through an enzyme-linked reagent.)

The test system of test [3] is human foreskin fibroblasts (HFF cells). Briefly: Cytotoxicity in stationary HFF cells (microscopic inspection of plaque assay cells). The class given is cell-based. The following applies: read-out: HFF. On the procedure: (§3) Two different assays were used to explore cytotoxicity of selected compounds: (i) Cytotoxicity produced in stationary HFF cells was determined by microscopic inspection of cells used in plaque assays which were not affected by the virus [Turk, S. R., et al, Antimicrob.
as §2

A further test has as its system KB cells. Briefly: Cytotoxicity: KB cell growth (crystal violet staining). The format is cell-based. The following applies: Homo sapiens, read-out: KBgrv. On the procedure:
as §3
Briefly, 96-well cluster dishes were planted with KB cells at 3000-5000 cells per well. After overnight incubation at 37° C., test compound was added in quadruplicate at six to eight concentrations. Plates were incubated at 37° C for 48 hours in a CO2 incubator, rinsed, fixed with 95% ethanol, and stained with 0.1% crystal violet. Acidified ethanol was added and plates read at 570 nm in a spectrophotometer designed to read 96-well ELISA assay plates.
as §2

[4] abbreviates: Human alphaherpesvirus 1, 72 h, Table 1, fifty-percent inhibitory concentration, ELISA, BSC-1 cells, 3-day incubation.
Where [5] appears, read: Table 1, cytotoxicity, stationary HFF cells, visual.
Where [6] appears, read: Table 1, cytotoxicity, KB cell growth, 48 hours.
[7] abbreviates: Human alphaherpesvirus 1, BSC-1, 72 h.

For the molecule `N#Cc1c(Br)n(Cc2ccc(Cl)cc2)c2ncnc(N)c12` [Compound 1388, 4-amino-6-bromo-7-(4-chlorobenzyl)-pyrrolo[2,3-d]pyrimidine-5-carbonitrile], the pIC50 in test [1] was 3.93; in test [2] (setting [4]), below 4.00; in test [3] (setting [5]), 3.93; in the test on KB cells (setting [6]), below 4.00.

Regarding `N#Cc1c(N)n(Cc2ccc(Br)cc2)c2ncnc(N)c12` [Compound 1389, 4,6-diamino-7-(4-bromobenzyl)-pyrrolo[2,3-d]pyrimidine-5-carbonitrile], the pIC50 was 6.70 in test [1], below 4.00 in test [2] (setting [4]), below 5.00 in test [3] (setting [5]) and 4.82 with KB cells (setting [6]). For the same molecule, the “antiviral activity against HCMV (in words)” value (shortened to “antiviral activity”) in test [1] is listed as “good to excellent antiviral activity”.

On to `NC(=O)c1cn(CCc2ccccc2)c2ncnc(N)c12` [Compound 1396, 4-amino-7-(2-phenyl)ethyl-pyrrolo[2,3-d]pyrimidine-5-carboxamide], for which the pIC50 in test [1] was 4.77; in test [2] (setting [4]), 4.35; in test [3] (setting [5]) it was below 4.00; in the test on KB cells (setting [6]), 4.40.

With `NC(=O)c1c(Br)n(CCc2ccccc2)c2ncnc(N)c12` [Compound 1409, 4-amino-6-bromo-7-(2-phenyl)ethyl-pyrrolo[2,3-d]pyrimidine-5-carboxamide], the pIC50 in test [1] was 4.00; in test [2] (setting [4]) it was below 4.00; in test [3] (setting [5]), below 4.00; in the test with KB cells (setting [6]), below 4.00. Further, the “antiviral activity” value in test [1] is reported as “lost”.

On to `NC(=O)c1cn(Cc2ccc([N+](=O)[O-])cc2)c2ncnc(N)c12` [Compound 1412, 4-amino-7-(4-nitrobenzyl)-pyrrolo[2,3-d]pyrimidine-5-carboxamide], for which the pIC50 in test [1] was 5.30; in test [2] (setting [7]) it was 4.35; in test [3] (HFF), 4.00; with KB cells (KB, 48 h), below 4.00. Also, the “antiviral activity” value in test [1] was “good to excellent antiviral activity”.

For `NC(=S)c1cn(CCCc2ccccc2)c2ncnc(N)c12` [Compound 1413, 4-amino-7-(3-phenyl)propyl-pyrrolo[2,3-d]pyrimidine-5-thiocarboxamide], the pIC50 is 6.30 in test [1], 5.82 in test [2] (setting [4]), 4.49 in test [3] (setting [5]) and 4.42 in the test on KB cells (setting [6]). In addition, the “antiviral activity” value in test [1] is “excellent activity”.

In the case of `CC(c1ccccc1)n1cc(C#N)c2c(N)ncnc21` (stereo not shown) [Compound 1414, 4-amino-7-((2-phenyl)eth-2-yl)-pyrrolo[2,3-d]pyrimidine-5-carbonitrile], the pIC50 in test [1] was 4.77; in test [2] (setting [4]), 4.35; in test [3] (setting [5]), below 3.92; with KB cells (setting [6]), 4.70.

For `NC(=O)c1cn(Cc2ccc(F)cc2)c2ncnc(N)c12` [Compound 1419, 4-amino-7-(4-fluorobenzyl)-pyrrolo[2,3-d]pyrimidine-5-carboxamide], the pIC50 in test [1] is 5.38; in test [2] (setting [7]), 4.80; in test [3] (HFF), 4.00; in the test on KB cells (KB, 48 h) it was 4.30. Further, in test [1], the “antiviral activity” value is on record as “good to excellent antiviral activity”.

As to `NC(=O)c1cn(Cc2cccc([N+](=O)[O-])c2)c2ncnc(N)c12` [Compound 1421, 4-amino-7-(3-nitrobenzyl)-pyrrolo[2,3-d]pyrimidine-5-carboxamide], the pIC50 is 4.38 in test [1]; below 4.00 in test [2] (setting [7]); below 4.00 in test [3] (HFF); below 4.00 with KB cells (KB, 48 h).

For the molecule `N#Cc1c(N)n(Cc2cccc([N+](=O)[O-])c2)c2ncnc(N)c12` [Compound 1425, 4,6-diamino-7-(3-nitrobenzyl)-pyrrolo[2,3-d]pyrimidine-5-carbonitrile], the pIC50 in test [1] is 5.30; in test [2] (setting [4]), below 4.00; in test [3] (setting [5]) it was below 4.00; with KB cells (setting [6]), below 4.00. Moreover, the “antiviral activity” value in test [1] is “Some activity”.

With `Cc1ccc(Cn2c(Br)c(C(N)=O)c3c(N)ncnc32)cc1` [Compound 1427, 4-amino-6-bromo-7-(4-methylbenzyl)-pyrrolo[2,3-d]pyrimidine-5-carboxamide], the pIC50 was below 5.00 in test [1]; below 4.00 in test [2] (setting [7]); below 5.00 in test [3] (HFF); below 4.00 with KB cells (KB, 48 h).

As for `CC(c1ccccc1)n1cc(C(N)=O)c2c(N)ncnc21` (stereo not shown) [Compound 1428, 4-amino-7-((2-phenyl)-eth-2-yl)-pyrrolo[2,3-d]pyrimidine-5-carboxamide], the pIC50 in test [1] is 4.42; in test [2] (setting [7]), 4.30; in test [3] (HFF), 4.35; in the test on KB cells (KB, 48 h), 4.70. Besides, the “antiviral activity” value in test [1] is “good to excellent antiviral activity”.

For `N#Cc1cn(Cc2ccc(F)cc2)c2ncnc(N)c12` [Compound 1429, 4-amino-7-(4-fluorobenzyl)-pyrrolo[2,3-d]pyrimidine-5-carbonitrile], the pIC50 in test [1] was 5.74; in test [2] (setting [4]), 4.48; in test [3] (setting [5]), below 4.00; with KB cells (setting [6]), 4.22. For the same molecule, the “antiviral activity” value in test [1] is reported as “good to excellent antiviral activity”.

In the case of `Cc1ccc(Cn2c(Br)c(C#N)c3c(=O)[nH]cnc32)cc1` [Compound 1441, 4-oxo-6-bromo-7-(4-methylbenzyl)-pyrrolo[2,3-d]pyrimidine-5-carbonitrile], the pIC50 in test [1] is 4.68; in test [2] (setting [4]) it was 4.05; in test [3] (setting [5]), 4.00; in the test with KB cells (setting [6]) it was 4.80.

Turning to `NC(=O)c1c(Br)n(Cc2ccc(Cl)cc2)c2ncnc(N)c12` [Compound 1443, 4-amino-6-bromo-7-(4-chlorobenzyl)-pyrrolo[2,3-d]pyrimidine-5-carboxamide], the pIC50 in test [1] was below 5.00; in test [2] (setting [7]) it was below 4.00; in test [3] (HFF), below 5.00; in the test on KB cells (KB, 48 h), below 4.00.

As to `N#Cc1cn(Cc2ccc(Cl)cc2)c2ncnc(N)c12` [Compound 1444, 4-amino-7-(4-chlorobenzyl)-pyrrolo[2,3-d]pyrimidine-5-carbonitrile], the pIC50 in test [1] was 6.10; in test [2] (setting [4]), 4.07; in test [3] (setting [5]) it was below 5.00; in the test with KB cells (setting [6]) it was below 4.00. Besides, in test [1], the “antiviral activity” value is on record as “good to excellent antiviral activity”.
